Source: PMC11547827, “Discovery of Cyclic Peptide Inhibitors Targeted on TNFα-TNFR1 from Computational Design and Bioactivity Verification” (Molecules, 2024)
“Also recorded” adds a separate entry of the source. Where a SMILES comes first, the peptide text is derived from it. Bridges are numbered along the chain shown (N, C = ends).

Experiments:
[1] = tested on: TNFα-mediated cytotoxicity in L929 cells; assay: Neutralization of TNFα induced necrosis in L929 cells
Protocol: L929 cells were seeded at a density of 8000 cells/well in a 96-well plate and incubated for 24 h in RPMI 1640 with 10% FBS at 37 °C. The experiment was divided into a blank group, a control group, a positive control group, and an experimental group. […] Serially diluted α_CC8 was added to cells and incubated at 37 °C, 5% CO2 for 2 h initially, and then 50 μL 10 ng/mL human TNFα was added and incubated overnight (17 h). 1 μg/mL Etanercept was used as a positive control. Subsequently, 100 μL 5% CCK-8 was added per well, followed by incubation of 2 h. The control group consisted of normal cultured cells without TNFα stimulation, while the blank control group contained empty wells without cells. At last, cell viability was confirmed by measuring the absorbance of each well at 450 nm. Cell viability was calculated according to Formula (7). Data was analyzed with SPSSAU (https://spssau.com/, Accessed on 14 August 2023) using the paired t-test to compare the differences between the experimental and control groups.

L929 cells = settings: α_CC8, 200 μM, 24 h, CCK-8, 450 nm, n = 3
Protocol: L929 cells were seeded in a 96-well plate at a density of 8000 cells per well and cultured for 24 h under standard conditions. Then, the liquid in the wells was discarded, and 100 µL of medium containing different concentrations of cyclic peptides was added. After incubation for 24 h, the liquid in the well was discarded, and the medium was replaced with CCK-8 working solution (100 μL RPMI 1640 medium containing 5% CCK-8) and incubated in the dark for 2 h. The absorbance of each well at 450 nm was detected with a microplate reader. The same operation was performed with wells not seeded with cells as a blank group to eliminate systematic errors. Cell viability was calculated according to the following formula:(7) Cell viability(%)=(ODtest−ODblank)/(ODcontrol−ODblank)×100%

TNFα trimer = settings: cited from earlier work
Source text: Several potential small molecules of TNFα inhibitors have already been reported. […] Furthermore, through structure-based virtual screening and biological assay, Xie’s group identified two novel antagonists, T1 and R1 (Figure S1A), which could bind to TNFα or TNFR1, with low-micromolar binding affinities to TNFα and TNFR1, respectively ...

TNFα = settings: cited from earlier work
Source text: Several potential small molecules of TNFα inhibitors have already been reported.

hTNFR1 = molecular target: T1, hTNFR1 (Homo sapiens, UniProt P19438); assay: ELISA binding affinity to hTNFR1
T1 sequence (P19438 30-455): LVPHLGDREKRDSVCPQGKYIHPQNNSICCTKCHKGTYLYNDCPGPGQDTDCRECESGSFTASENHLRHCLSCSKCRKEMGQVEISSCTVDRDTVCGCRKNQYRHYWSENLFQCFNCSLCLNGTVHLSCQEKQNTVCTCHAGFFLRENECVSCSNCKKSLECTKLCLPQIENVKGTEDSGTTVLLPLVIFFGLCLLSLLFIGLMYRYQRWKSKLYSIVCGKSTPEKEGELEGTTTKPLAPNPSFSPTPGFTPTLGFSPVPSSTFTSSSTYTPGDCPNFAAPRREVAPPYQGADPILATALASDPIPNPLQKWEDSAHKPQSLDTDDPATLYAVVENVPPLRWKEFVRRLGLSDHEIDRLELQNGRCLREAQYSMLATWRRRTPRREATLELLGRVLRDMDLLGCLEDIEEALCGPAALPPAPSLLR
Protocol: The hTNFR1 (100 ng) was coated on a 96-well ELISA plate (BIOFIL, Guangzhou, China) overnight at 4 °C, followed by blocking the plate with 200 μL of 3% skim milk solution in PBST (PBS, 0.05% Tween20) for 2 h at 37 °C. […] After incubating with the cyclic peptides for 2 h at room temperature, […] mAB (Solarbio, Beijing, China) was diluted at 1:500, and was incubated for an additional 2 h at room temperature. Five washes with PBST were carried out between each incubation to remove nonspecific absorbance. After the final wash, the samples were incubated in the dark with freshly prepared TMB Chromogen Solution (Sangon Biotech, Shanghai, China) for 10 min at room temperature to develop the signals. After adding the stop solution (1 M H2SO4), the plates were read at 450 nm on a plate reader. The raw data were processed to calculate the Kd value.

CC[C@H](C)[C@@H]1NC(=O)[C@H](CCCNC(=N)N)NC(=O)[C@H](CO)NC(=O)[C@H]([C@@H](C)CC)NC(=O)[C@H]([C@@H](C)O)NC(=O)[C@@H](N)CSSC[C@@H](C(=O)O)NC(=O)[C@H](CO)NC(=O)[C@H](CC(C)C)NC(=O)[C@H](CC(C)C)NC(=O)[C@H](CC(N)=O)NC(=O)[C@H](C(C)C)NC(=O)[C@H](CCCCN)NC(=O)[C@H]([C@@H](C)O)NC(=O)[C@H](CCC(N)=O)NC(=O)[C@H](Cc2ccc(O)cc2)NC(=O)[C@H](CO)NC(=O)[C@H](C(C)C)NC(=O)[C@H](C)NC1=O [α_CC8] (H-CTISRIAVSYQTKVNLLSC-OH; disulfide 1-19; N-terminus and C-terminus assumed)
inhibition of TNFα-mediated cytotoxicity (in words) ([1]; L929 cells): effectively inhibit the TNFα-mediated cytotoxicity; also recorded: better bioactivity and lower effective concentration than R1_CC4; also recorded: improve cell viability significantly by inhibiting TNFα-mediated necrosis; also recorded: higher biological activity and effective concentration than R1_CC4 | concentration at which survival rate increased significantly ([1]; L929 cells, human TNFα 10 ng/mL, 17 h, CCK-8, n = 3): 60 µM | increase of cell survival rate ([1]; α_CC8 60 μM, 2 h with cells, then human TNFα 17 h, n = 3): 17.8% | survival rate of L929 cells (L929 cells): ≤ 90%

Cc1cc2occ(CN(C)CCN(C)Cc3cn(-c4cccc(C(F)(F)F)c4)c4ccccc34)c(=O)c2cc1C [SPD-304, reference compound]
effect on TNFα trimer (in words) (TNFα trimer): greatly increase the dissociation rate of the TNFα trimer | Kd (TNFα; TNFα small molecule antagonist): 5.36 µM

TNFα
survival rate of L929 cells after TNFα ([1]; TNFα alone, 10 ng/mL, 17 h, average): 42%

CC[C@H](C)[C@@H]1NC(=O)[C@H](CCCNC(=N)N)NC(=O)[C@H](CO)NC(=O)[C@H]([C@@H](C)CC)NC(=O)[C@H]([C@@H](C)O)NC(=O)[C@@H](N)CSSC[C@@H](C(=O)O)NC(=O)[C@H](CO)NC(=O)[C@H](CC(C)C)NC(=O)[C@H](CCCNC(=N)N)NC(=O)[C@H](CC(N)=O)NC(=O)[C@H](C(C)C)NC(=O)[C@H](CCCCN)NC(=O)[C@H]([C@@H](C)O)NC(=O)[C@H](CCC(N)=O)NC(=O)[C@H](Cc2ccc(O)cc2)NC(=O)[C@H](CO)NC(=O)[C@H](C(C)C)NC(=O)[C@H](CCCCN)NC1=O [L16R] (H-CTISRIKVSYQTKVNRLSC-OH; disulfide 1-19; N-terminus and C-terminus assumed)
binding to hTNFR1 (in words) (hTNFR1): good binding condition with hTNFR1

Etanercept
TNFα binding (in words) (TNFα; background statement, no reference given): strong ability to bind TNFα | blocking effect compared with the cyclic peptides (in words) ([1]; Etanercept 1 μg/mL, positive control, L929 cells): stronger blocking effect on the formation of TNFα/TNFR1
